In patent US20180280528A1, “ANTIFOLATE CONJUGATES FOR TREATING INFLAMMATION” (ENDOCYTE, INC., priority 2015, published 2018):

Columns and labels:
[1] = Pharmacokinetics in dogs; details: for half-life: male
Protocol: (§1) The samples were centrifuged under refrigeration for at least 10 minutes at 3000 rpm and the plasma generated stored at −20° C. until LC-MS/MS analysis.
as §1
(§2) LC-MS/MS analysis utilized a Waters Acquity UPLC system paired with a Waters Quattro Premier XE tandem quadrupole mass spectrometer operating in ESI positive mode. Prior to injection, K3EDTA plasma samples were processed using a Phenomenex Strata X-A solid phase extraction (SPE) plate. All plasma samples were fortified with N-Maleoyl-β-alanine, mannitol, and acetic acid. Briefly, 50 μL of plasma diluted with 50 μL of internal standard solution and 500 μL 1000:4:1.5 water:ammonium hydroxide:formic acid was mixed and loaded onto a preconditioned Strata X-A SPE plate. Aqueous and organic washes were then applied followed by elution of all analytes with 300:200:7.5 methanol:water:formic acid. The samples were evaporated until approximately 30 μL remained in all wells and 30 μL of 9:1 water:ammonium hydroxide was then added. Finally, the plate was sealed, mixed, and centrifuged prior to transfer to the 2-8° C. Acquity autosampler. Note: During EC1669 analysis, EC0470 was converted to a hydrazone product for bioanalysis. Acetone (500 μL) was added to all samples after the first evaporation step followed by sealing all wells and heating at 50° C. for one hour. After this step, the acetone was evaporated and the extraction completed as described above.
(§3) A 10 μL sample volume was applied to the Waters BEH Shield RP18 100×2.1 mm, […] UPLC column operating at a flow rate of 0.4 mL/min while being maintained at 45° C. A gradient between mobile phase A (1000:4:1.5 water:ammonium hydroxide:formic acid) and mobile phase B (acetonitrile) was used to separate the analytes. The gradient was held at 2% B for the first 30 seconds of the chromatographic run followed by increasing to 20% B by 2.5 minutes. A rapid gradient from 60-90% B is then used to clean the column prior to equilibration at 2% B to complete the 4 minute run cycle.
(§4) For EC1669 MS/MS analysis, EC1669 and its known major metabolites, EC1886 and […], were optimized and monitored. […] In all cases, internal standard response was used to generate response ratios for each analyte. When calibrated, data was regressed using MassLynx 4.1 software. The table below lists transitions for analytes and internal standards monitored for LC-MS/MS bioanalysis.

[2] = Pharmacokinetics in rats
Protocol: Each rat was used for collection of blood samples for a maximum of 4 time points. […] The samples were centrifuged for 3 minutes at 2000×g (Eppendorf 5417R centrifuge) to obtain plasma. The plasma samples were stored at −80° C. until LC-MS/MS analysis.
as §2, §3, §4

[3] = system: Rat adjuvant arthritis (AIA); test: Rat adjuvant arthritis (AIA) treatment studies; type: in vivo
Protocol: Female Lewis rats (175-200 g) were purchased from Harlan Sprague Dawley (Indianapolis, Ind.) and allowed to acclimate for 1 week. Generally, rats were fed a folate-deficient diet (Harlan Teklad) for 9-10 days prior to arthritis induction.
Rat adjuvant arthritis (AIA) was induced by intradermal inoculation (at the base of tail) of 0.45-0.46 mg of heat-killed Mycobacteria butyricum (BD Diagnostic Systems, Sparks, Md.) in 100 μL light mineral oil (Sigma). […] During the course of disease development, animals were weighed at least 3 times a week. Paw edema (degree of arthritis) were scored 3 times a week as follows: 0=no edema or arthritis; 1=swelling in one type of joint; 2=swelling in two types of joint; 3=swelling in three types of joint; 4=swelling of the entire paw. A total score for each rat is calculated by adding up the scores for each of the four paws, giving a maximum of 16 per animal.
On the first day of treatment, rats with desired arthritis scores were distributed evenly across the control and treatment groups (n=5). […] All compounds and conjugates were administered subcutaneously (s.c.) starting 9 days after arthritis induction with biweekly (BIW, Mondays and Thursdays) or once-a-week (QW, Mondays) dosing for two consecutive weeks. At the completion of each study (˜4 days after the last treatment), rats were euthanized by CO2 asphyxiation and processed for paw weight (cut at the hairline) and spleen weight.
The rat AIA model resembles many characteristics of human rheumatoid arthritis and it is very aggressive. […] The animals in the AIA control group were left untreated.

[4] = rat plasma, EC1669 dosed SC 500 nmol/kg
[5] = beagle dog plasma, EC1669 dosed SC 2.4 mg/kg (1073 nmol/kg), N=4
[6] = female, Lewis, rat, in vivo, sc, 500 nmol/kg
[7] = beagle, dog, in vivo, sc, 2.4 mg/kg

**Q.** What does the source list for `COC(=O)[C@H](CSC1CC(=O)N(CCC(=O)O)C1=O)NC(=O)CC[C@H](NC(=O)c1ccc(NCc2cnc3nc(N)[nH]c(=N)c3n2)cc1)C(=O)O` (stereo partly shown) [EC2496]?
**A.** half-life ([1]; beagle, dog, plasma, iv, 1 mg/kg): 76.8 min; half-life ([1]; beagle, dog, plasma, sc, 2.43 mg/kg): 128 min

**Q.** With `NNC(=O)CC[C@H](NC(=O)c1ccc(NCc2cnc3nc(N)nc(N)c3n2)cc1)C(=O)O` [EC0470, aminopterin gamma-hydrazide] as the compound, how does the AUCinf [2, 4] read?
**A.** The AUCinf was 65.9 nM·h.

**Q.** What about the AUClast [2, 4] of the same compound?
**A.** Its AUClast is 64.7 nM·h.

**Q.** And the Cmax [2, 4]?
**A.** Its Cmax is 21.2 nM.

**Q.** What about the Tmax [2, 4] of the same compound?
**A.** Its Tmax is 1 h.

**Q.** And the t1/2 [2, 4]?
**A.** Its t1/2 is 1.64 h.

**Q.** What about the AUClast [1, 5] of the same compound?
**A.** The AUClast was 510 nM·h.

**Q.** And the Cmax [1, 5]?
**A.** The Cmax was 66.5 nM.

**Q.** And the Tmax [1, 5]?
**A.** Its Tmax is 3.25 h.

**Q.** And the t1/2 [1, 5]?
**A.** Its t1/2 is 4.38 h.

**Q.** Which “anti-arthritic activity with concurrent EC0923 (arthritis score, paw weight, spleen weight, body weight)” value ([3]; Study 2, 500 nmol/kg BIW plus 500-fold molar excess EC0923 (250 μmol/kg)) does the source give for `N=c1[nH]c(N)nc2ncc(CNc3ccc(C(=O)N[C@@H](CCC(=O)NCCSSC[C@@H](NC(=O)[C@H](CCC(=O)NC[C@H](O)[C@@H](O)[C@H](O)[C@H](O)CO)NC(=O)[C@@H](CCC(=O)O)NC(=O)[C@H](CCC(=O)NC[C@H](O)[C@@H](O)[C@H](O)[C@H](O)CO)NC(=O)[C@@H](CCC(=O)O)NC(=O)[C@H](CCC(=O)NC[C@H](O)[C@@H](O)[C@H](O)[C@H](O)CO)NC(=O)CC[C@H](NC(=O)c4ccc(NCc5cnc6nc(N)[nH]c(=O)c6n5)cc4)C(=O)O)C(=O)O)C(=O)O)cc3)nc12` [EC2285] here?
**A.** Its value is “fully blocked by EC0923”.

**Q.** For `COC(=O)[C@H](CCCCNC(=O)[C@H](CCC(=O)NC[C@H](O)[C@@H](O)[C@H](O)[C@H](O)CO)NC(=O)[C@H](CCC(=O)O)NC(=O)[C@H](CCC(=O)NC[C@H](O)[C@@H](O)[C@H](O)[C@H](O)CO)NC(=O)[C@H](CCC(=O)O)NC(=O)[C@H](CCC(=O)NC[C@H](O)[C@@H](O)[C@H](O)[C@H](O)CO)NC(=O)CC[C@H](NC(=O)c1ccc(NCc2cnc3nc(N)[nH]c(=O)c3n2)cc1)C(=O)O)NC(=O)CC[C@H](NC(=O)c1ccc(NCc2cnc3nc(N)[nH]c(=N)c3n2)cc1)C(=O)O` [EC2413], which anti-arthritic activity ([3]; Study 3, 500 nmol/kg, BIW) is on record?
**A.** The anti-arthritic activity was “significant anti-arthritic activity”.

**Q.** And the body weight ([3]; Study 3, 500 nmol/kg, BIW)?
**A.** Its body weight is “maintained a good body weight”.

**Q.** What about the “decreasing arthritis score, paw weight, and spleen weight” value ([3]; Study 3, 500 nmol/kg, BIW, two consecutive weeks) of the same compound?
**A.** The value was “inferior to both EC2319 and EC1669”.

**Q.** What about the “effectiveness in all parameters assessed” value ([3]; Study 3, 1000 nmol/kg (QW)) of the same compound?
**A.** The value was “less effective than EC2413 dosed at 500 nmol/kg (BIW)”.

**Q.** For `Nc1nc(N)c2nc(CNc3ccc(C(=O)N[C@@H](CCC(=O)O)C(=O)O)cc3)cnc2n1` [EC1886, aminopterin, reference compound], which AUCinf [2, 6] is on record?
**A.** The AUCinf was 95.6 nM·h.

**Q.** And the AUClast [2, 6]?
**A.** The AUClast was 94.7 nM·h.

**Q.** And the half-life [2, 6]?
**A.** Its half-life is 59.8 min.

**Q.** What about the AUC(0-inf) ([2]; female, Lewis, rat, in vivo, sc, 500 nmol/kg, AUCinf) of the same compound?
**A.** Its AUC(0-inf) is 0.107 µM·h.

**Q.** And the AUClast ([1]; beagle dog plasma, EC2319 dosed SC 2.43 mg/kg (1074 nmol/kg), N=2)?
**A.** The AUClast was 157 nM·h.

**Q.** And the AUC(0-t) [1, 7]?
**A.** The AUC(0-t) was 0.0417 µM·h.

**Q.** What about the Cmax [1, 7] of the same compound?
**A.** The Cmax was 9.41 nM.

**Q.** And the Tmax [1, 7]?
**A.** Its Tmax is 3.5 h.

**Q.** And the “AUClast of aminopterin released, higher from EC2319 than from EC1669” value ([1]; dogs, subcutaneous dosing)?
**A.** Its value is about 3.8 fold.

**Q.** What about the “Cmax of aminopterin released, higher from EC2319 than from EC1669” value ([1]; dogs, subcutaneous dosing) of the same compound?
**A.** The value was about 2.6 fold.

**Q.** What about the half-life ([1]; beagle, dog, in vivo, iv, 1 mg/kg) of the same compound?
**A.** The half-life was 120 min.

**Q.** And the half-life ([1]; beagle, dog, in vivo, sc, 2.43 mg/kg)?
**A.** Its half-life is 164 min.
